Source: publication PMC10115881, “Disrupting the α-synuclein-ESCRT interaction with a peptide inhibitor mitigates neurodegeneration in preclinical models of Parkinson’s disease” (Nature Communications, 2023)
Several values for one entry are separate records, joined by “and”; a condition that tells them apart may be missing. Identical values can stand only once.

What was measured:
A53T a-syn or EV rats [1] = assay: Striatal catecholamines by HPLC; format: in vivo, rat; conditions: A53T high titer
Experimental: Animals were secured in a stereotactic frame under isoflurane/oxygen anesthesia and ketoprofen (5 mg/kg) analgesia. The surgical site was shaved and sterilized with iodine/betadine prior to making a 2 cm incision along the midline. The scalp was exposed and a unilateral injection targeting the SN was performed at coordinates AP −5.2 mm, ML −2 mm and DV −7.5 mm with respect to the bregma as a point of reference. For each animal, a total volume of 2 μl of virus was injected at a rate of 0.5 μl/min using a microinjection pump and 10 μl Hamilton syringe with a 26-gauge needle. For A53T groups, 1 μl (low dose) or 1.34 μl (high dose) of AAV1/2-A53T a-syn (5.1 × 10^12 genomic particles/ml), 0.14 μl of AAV1/2-PDpep1.3-GFP or Scramble1.3-GFP (5.1 × 10^12 genomic particles/ml) and 0.86 μl or 0.52 μl of sterile PBS was injected; for EV groups, 1 μl (low dose) or 1.34 μl (high dose) of AAV1/2-EV (5.1 × 10^12 genomic particles/ml) replaced AAV1/2-A53T. […]
HPLC was performed as described. […] Catecholamines were determined from the supernatant. Values of catecholamines are expressed as ng analyte/mg total protein.

A53T a-syn or EV rats [2] = assay: AAV-A53T a-syn rat model, high titer, TH+ neurons; format: in vivo; conditions: 6 weeks
Source text: Third, we used a preclinical rat model of PD in which SN degeneration is induced by AAV vector-mediated expression of human mutant A53T a-syn[18],[45]–[48] (Fig. 5A). […] (Fig. 5B, C). […] Furthermore, overexpression of A53T a-syn was associated with a reduction in LAMP1 positive puncta in the SN which was restored with PDpep1.3 (Figs. 5E, S5E). […] Forelimb asymmetry in the cylinder test is a behavioral impairment associated with SN degeneration which models bradykinesia, the cardinal motor abnormality in PD[49].
Adult female Sprague-Dawley rats (250–280 g; Envigo) were pair-housed in cages with wood bedding and had access to food and water ad libitum. […]
Immunofluorescence staining for a-syn, pS129 a-syn, TH, and LAMP1 was performed by washing free-floating sections with PBS-T (0.1% Tween-20 or 0.2% Triton-X-100) three times for 10 min each at room temperature. […] Sections were then mounted onto glass slides and allowed to dry and then Dako fluorescence mounting medium (Agilent) was applied, followed by coverslips.
Confocal images of immunofluorescent staining of midbrain sections were processed using HALO software (Indica Labs), which is a well validated tool for automatic quantification of neurons in brain tissue sections[70]–[72]. […] Levels of total a-syn were assessed in this ROI by measuring the area and intensity of anti-a-syn staining. […]

A53T a-syn or EV rats [3] = assay: Cylinder test, forelimb asymmetry; format: in vivo, rat; set-up: Forelimb asymmetry in cylinder test: scale not given here; conditions: for Forelimb asymmetry in cylinder test: individual rats
Experimental: Animals were secured in a stereotactic frame under isoflurane/oxygen anesthesia and ketoprofen (5 mg/kg) analgesia. The surgical site was shaved and sterilized with iodine/betadine prior to making a 2 cm incision along the midline. The scalp was exposed and a unilateral injection targeting the SN was performed at coordinates AP −5.2 mm, ML −2 mm and DV −7.5 mm with respect to the bregma as a point of reference. For each animal, a total volume of 2 μl of virus was injected at a rate of 0.5 μl/min using a microinjection pump and 10 μl Hamilton syringe with a 26-gauge needle. For A53T groups, 1 μl (low dose) or 1.34 μl (high dose) of AAV1/2-A53T a-syn (5.1 × 10^12 genomic particles/ml), 0.14 μl of AAV1/2-PDpep1.3-GFP or Scramble1.3-GFP (5.1 × 10^12 genomic particles/ml) and 0.86 μl or 0.52 μl of sterile PBS was injected; for EV groups, 1 μl (low dose) or 1.34 μl (high dose) of AAV1/2-EV (5.1 × 10^12 genomic particles/ml) replaced AAV1/2-A53T. For V1S/SV2 groups, 0.58 μl of AAV1/2-V1S (1.1 × 10^12 genomic particles/ml), 0.58 μl of AAV1/2-SV2 (1.1 × 10^12 genomic particles/ml), 0.14 μl of AAV1/2-PDpep1.3-RFP or Scramble1.3-RFP (5.1 × 10^12 genomic particles/ml) and 0.7 μl of sterile PBS was injected; for the YFP groups, 1.16 μl of AAV1/2-YFP (1.1 × 10^12 genomic particles/ml), 0.14 μl of AAV1/2-PDpep1.3-RFP or Scramble1.3-RFP (5.1 × 10^12 genomic particles/ml) and 0.7 μl of sterile PBS was injected. At the end of virus injection, the needle remained in place for 5 min before gradual removal.
Spontaneous forepaw use was evaluated using the cylinder test 1 day prior to stereotactic AAV injection, at 21 days post-injection, and at 41 days post-injection. Following overnight food restriction, individual rats with right paws marked black were placed into a glass cylinder in front of two mirrors and videos recorded. An observer blinded to treatment conditions later scored the videos by recording whether animals used their left forepaw, right forepaw, or both forepaws to touch the inner glass surface upon rearing. A total of 5 min of video recording was scored and a minimum of 10 total touches was required for data inclusion.

Sequence: DEEIERQLKALG [PDpep1.3]
- Striatal dopamine, DOPAC and HVA (A53T a-syn or EV rats [1]): restored compared with the Scramble1.3 condition
- Effect on neurodegeneration in SN (A53T a-syn or EV rats [2]): neurodegeneration was mitigated
- Forelimb asymmetry in cylinder test (A53T a-syn or EV rats [3]; A53T, 3 WPI): -28.57 and 24.32 and 52.38 and 33.3333 and 9.524 and -2.857
- Forelimb asymmetry in cylinder test (A53T a-syn or EV rats [3]; A53T, 6 WPI): -12.5 (2×) and 25.93 and 21.43 and 6.98
- Forelimb asymmetry (A53T a-syn or EV rats [3]; A53T, 6 weeks): comparable to controls
- Forelimb asymmetry in cylinder test (A53T a-syn or EV rats [3]; A53T, baseline (prior to injection)): -7.41 and 24.14 and 18.18 and 22.22 and -2.4 and -27.78 and 19.4
- Forelimb asymmetry in cylinder test (A53T a-syn or EV rats [3]; EV, 3 WPI): 3.448 and -28.5714 and 80.9524 and -6.849 and 10.3448 and -26.6667 and 19.4444
- Forelimb asymmetry in cylinder test (A53T a-syn or EV rats [3]; EV, 6 WPI): 20 and -14.29 and 37.5 and -3.23 and 75 and -33.33 and 3.03
- Forelimb asymmetry in cylinder test (A53T a-syn or EV rats [3]; EV, baseline (prior to injection)): 21.95 and -4 and 13.16 and -24.75 and 1.82 and 24.14 and 9.8
